Results published in patent US11571484B2, “Compositions that target tumor-associated macrophages and methods of use therefor” (Sanford Burnham Prebys Medical Discovery Institute, priority 2017, dated 2023).

What was measured:
peritoneal macrophages = assay: In vivo phage display on peritoneal cells of 4T1 tumor-bearing versus normal mice; parameters: species or system mouse; details: phage-displayed peptide
Experimental: A, Naive phage library was injected intraperitoneally in 4T1 tumor-bearing mice and age-matched normal mice, and allowed to circulate for two h. Peritoneal cells were collected, the accompanying phages were rescued and the peptide-encoding segment of phage DNA was sequenced. […] Peritoneal cells were extracted from the mice, seeded on coverslips, allowed to attach for 2 h, fixed, permeabilized, and stained for CD206. CD206+ cells were counted from 6 different confocal images, 2 from each mouse. C, Highly repeated sequences obtained from the first round of the biopanning experiment shown schematically in panel A. D, Frequency of phage clones encoding UNO or a randomly picked peptide (CIGVSSDC) divided by the total number of repeated sequences) in the 4T1 tumor-bearing and normal mice.
Ten days later, the 4T1 mouse and a Balb/c female mouse of the matched age, were injected with 500 μL of a 7×10^10 pfu/mL of purified CX7C long-circulating library that bears a mutation on the p17 protein of tail fiber^45. After 2 h the mice were anesthetized and peritoneal cells were collected, washed by centrifugation, and lysed by hand-held homogenizer in 2 mL of LB+NP40 1%. The phage was amplified in E. coli strain BLT5403 for high throughput sequencing of peptide encoding segment of the phage genomic DNA using Ion Torrent semiconductor sequencing system.
In vivo phage display was carried out on orthotopic breast cancer bearing mice as outlined in FIG. 1A. Compared to peritoneal cells of healthy mice, […] macrophages were ˜5-fold overrepresented in Balb/c mice bearing metastatic syngeneic 4T1 breast tumors (FIG. 1B). We hypothesized that a peptide that binds to peritoneal macrophages in tumor-bearing mice may also target M2-like TAMs. Mice with 4T1 tumors were injected intraperitoneally (i.p.) with a phage library expressing 9-amino acid cyclic CX7C peptides. After 2 h, peritoneal cells were collected, bound phages were rescued by amplification, and the resulting phage pool was subjected to high-throughput sequencing of the peptide-encoding segment of the phage genome. […]

RAW 267.4 cells = assay: Phage biopanning on cultured CD206- RAW 267.4 macrophages; format: cell-based, mouse; details: phage-displayed peptide, 4 °C overnight
Experimental: A, Cultured RAW 267.4 mouse macrophages were fixed with PFA and stained with rat anti-CD206 (red) and counterstained with DAPI (blue). B, Phage display on RAW 267.4 cells. Cells were lifted using a cell scraper, centrifuged, brought to 4° C. and incubated with 0.5 mL of the same phage library used for the in vivo experiments (0.5 mL of 7×10^10 pfu/mL)+0.5 mL of DMEM, at 4° C. overnight. Cells were then washed four times resuspending in PBS and placing in a new tube every time, lastly the cells were suspended in LB+NP40%, lysed and phage insert were sequenced. The UNO clone is […] of the list (red). Only the top 50 hits from the screen are shown. Scale bar: 50 μm.
Mouse macrophage cell line Raw 267.4 (ATCC, VA, USA) was cultured in DMEM with FBS and antibiotics. Cells from a 25 cm^2 flask (˜3×10^6 cells) were lifted using a cell scraper, centrifuged, brought to 4. C and incubated with 0.5 mL of the same purified library used for the in vivo experiments (0.5 mL of 7×10^10 pfu/mL)+0.5 mL of DMEM, at 4-C overnight. Cells were then washed four times by re-suspending in PBS and placing them in a new tube every time, and finally suspended in LB+1% NP40, lysed and subjected to high throughput sequencing.

[1] = tested on: MRC1/CD206-expressing tumor-associated macrophages (MEMs) in 4T1 tumors; assay: Free peptide homing and immunofluorescence in the orthotopic 4T1 breast tumor model; details: 30 nmoles i.v., 2 h circulation
Experimental: (SEQ ID NO: 5) control peptide were injected intravenously into 4T1 tumor-bearing mice and allowed to circulate for 2 h. Mice were then sacrificed and tumor and tissues were analyzed by immunofluorescence using rabbit anti-FAM (green) and rat anti-CD206 or rat anti-TIE2 (red) antibodies, and counterstained with DAPI. All images were taken under the same imaging conditions. FAM-UNO accumulated in macrophages within tumors and lymph nodes positive for CD206 staining (A, B, C) and TIE2 (D, and H: Blow up of D). […] To ascertain that anti-CD206 is capable of detecting CD206 in the liver, an image was acquired with longer exposure time from an uninjected animal (FIG. 25). […] Green: FAM-peptide; Red: CD206 or TIE2, Blue: DAPI. Representative fields from multiple sections prepared from at least 3 tumors (n≥3 mice) are shown.
(§1) Tumor models were induced according to protocols approved by the Estonian Ministry of Agriculture, Committee of Animal Experimentation (permit #48). For the 4T1 breast model, 8-week old female Balb/c mice were injected in the mammary fat pad with 10^6 cells dispersed in 50 μL of PBS. For homing studies, mice were used 10 days later, when the tumor had reached ˜150 mm^3. For MCF-7 breast model, 8-week old female nude mice were implanted with an estrogen pellet, and 1 week later inoculated with 5×10^6 MCF-7 cells in 100 μL of cold Matrigel (BD Biosciences, CA, USA). Mice were used for homing studies three weeks later (tumor volume˜150 mm^3). For the metastatic gastric carcinoma, 10^6 MKN45-P cells in PBS were injected intraperitoneally in 8-week old female nude mice. Mice were used for homing studies two weeks later. For the metastatic melanoma model, 2×10^5 B16F10 cells were injected intravenously in 100 μL of PBS in C57 BL6 mice. The mice were used for homing studies 10 days after. For the angiogenic glioblastoma model, WT-GBM 24, 7×10^5 cells were stereotactically injected in the right striatum of Fox/Nu mice 2 mm lateral and posterior of bregma of 2.5 mm deep. The mice were used for homing studies 6-7 days after the injection.
For free peptide homing studies, mice were injected intravenously with 30 nmoles of FAM-peptides in 100 μL of PBS. For nanoparticle homing studies-FAM-UNO—NP-PTX-, mice were injected intravenously in mice bearing MCF-7 breast tumors with 1 mg of Polymer in 100 μL pf PBS and allowed to circulate for 6 h. For tissue collection, the mice were anesthetized and the tissues collected and immediately placed in 4% cold PFA and left overnight at 4-C. Tissues were washed with PBS for 2 h at room temperature and cryoprotected with sucrose 15% at 4-C overnight and then in sucrose 30% at 4·C overnight. The tumor and the control organs were placed together in the same block with OCT compound (Leica Biosystems, Wetzlar, Germany), snap-frozen in isopentane, and sectioned at 10 μm. FAM was detected using Rabbit anti-FITC (Invitrogen, CA, USA. Catalog # A-889) at a dilution of 1/100 and using Alexa Fluor-546 anti-rabbit antibody (Invitrogen, Ca, USA. Catalog # A-11035) at a dilution of 1/200. CD31 was detected using rat anti-mouse CD31 (BD Biosciences, CA, USA. Catalog #: 553370), TIE2 was detected using rat anti-mouse TIE2 (Biolegend, CA, USA. Catalog #124001), CD209 was detected using rat anti-mouse CD209 (Biolegend, CA, USA. Catalog #147802), HLA ABC was detected using rat anti Human HLA ABC (Bio-Rad, CA, USA. Product code MCA485G), and CD206 was detected using ratanti-mouse CD206 (Bio-Rad, CA, USA. Product code MCA2235GA); using 1/100 primary antibody dilution and Alexa Fluor-647 anti-Rat antibody (Invitrogen, CA, USA. Catalog #21247) at 1/200 dilution. To quantify FAM signal from confocal images, the green channel of images taken by using 20× magnification objective was opened with ImageJ, converted to 8-bit grayscale and the integrated pixel intensity was measured. Different regions of tumors from three different mice were used.

MEMs in WT-GBM tumors = assay: Free peptide homing and immunofluorescence in the orthotopic WT-GBM glioblastoma model; details: 30 nmoles i.v., 2 h
Experimental: (§2) Thirty nmoles of FAM-UNO or FAM-control peptide were injected intravenously into mice and allowed to circulate for 2 h. Mice were then sacrificed and tumor and tissues were analyzed by immunofluorescence using rabbit anti-FAM (green) and rat anti-CD206 (red) antibodies, and counterstained with DAPI. […] The metastases were induced by i.v. inoculation of B16F10 melanoma cells. […] Blue: DAPI. Representative fields from multiple sections (n≥3) prepared from at least 3 tumors are shown. Scale bar: 50 μm. Images shown are representative fields from multiple sections (≥3) prepared from at least 3 tumors (n≥3 mice). The graphs show mean+SEM of FAM signal quantified as described in Materials and Methods.
as §1
For free peptide homing studies, mice were injected intravenously with 30 nmoles of FAM-peptides in 100 μL of PBS. For nanoparticle homing studies-FAM-UNO—NP-PTX-, mice were injected intravenously in mice bearing MCF-7 breast tumors with 1 mg of Polymer in 100 μL pf PBS and allowed to circulate for 6 h. For tissue collection, the mice were anesthetized and the tissues collected and immediately placed in 4% cold PFA and left overnight at 4-C. Tissues were washed with PBS for 2 h at room temperature and cryoprotected with sucrose 15% at 4-C overnight and then in sucrose 30% at 4·C overnight. […] FAM was detected using Rabbit anti-FITC (Invitrogen, CA, USA. Catalog # A-889) at a dilution of 1/100 and using Alexa Fluor-546 anti-rabbit antibody (Invitrogen, Ca, USA. Catalog # A-11035) at a dilution of 1/200.

[2] = tested on: MEMs in B16F10 melanoma lung metastases; details: 30 nmoles i.v., 2 h
Experimental: as §2
as §1, with “For the angiogenic glioblastoma model, WT-GBM 24, 7×10^5 cells were stereotactically injected in the right striatum of Fox/Nu mice 2 mm lateral and posterior of bregma of 2.5 mm deep. The mice were used for homing studies 6-7 days after the injection.” left out
(§3) For free peptide homing studies, mice were injected intravenously with 30 nmoles of FAM-peptides in 100 μL of PBS. […] FAM was detected using Rabbit anti-FITC (Invitrogen, CA, USA. Catalog # A-889) at a dilution of 1/100 and using Alexa Fluor-546 anti-rabbit antibody (Invitrogen, Ca, USA. Catalog # A-11035) at a dilution of 1/200.

MEMs in MKN45-P tumors = details: 30 nmoles i.v., 2 h
Experimental: as §2
as §1, with “For the angiogenic glioblastoma model, WT-GBM 24, 7×10^5 cells were stereotactically injected in the right striatum of Fox/Nu mice 2 mm lateral and posterior of bregma of 2.5 mm deep. The mice were used for homing studies 6-7 days after the injection.” left out
as §3

Substance | overrepresentation of phage in peritoneal cells from 4T1 tumor-bearing mice versus healthy mice (peritoneal macrophages; library injected i.p., 2 h) [fold] | representation among sequenced phage clones (peritoneal macrophages; peritoneal cells of 4T1 tumor mice) | position of the phage clone in the list of hits (RAW 267.4 cells) | accumulation in MEMs / tumor homing [1] | accumulation in tumor (MEMs in WT-GBM tumors) | accumulation in tumor (MEMs in WT-GBM tumors; listed as FAM-Control peptide) | homing to melanoma lung metastases [2] | accumulation in MEMs / CD206+ cells (MEMs in MKN45-P tumors)
CSPGAKVRC [peptide codenamed UNO, identified by in vivo phage display] | ~10 | most highly represented non-truncated peptide | 2140 |  |  |  |  | 
FAM-CRKQGEAKC: FAM-labeled control peptide CRKQGEAKC (SEQ ID NO: 5) of the same charge and molecular weight as FAM-UNO (not fully specified; FAM label) [reference compound] |  |  |  | no tumor homing | did not accumulate in the tumor | Little to no | Little to no | no accumulation was detected in CD206^+ cells
